Laboratory results as given in US9371265B2, “Compositions and methods related to inhibitors of JAK kinase” (EP PHARMA, INC., priority 2012, dated 2016).

Legend:
RET = RET (Homo sapiens, UniProt P07949); test: Kinase panel: RET; type: biochemical; details: 10 μM EP009
Protocol: Achieving JAK3 selectivity remains a significant challenge in the development of new small molecules for the treatment of cancer and immune-derived diseases. As such, the inventors employed cell-based screening assays of small-molecule libraries based upon the chemical scaffold of the established JAK3 inhibitor NC1153 (Stepkowski et al., J Immunol. (2005), 175(7):4236-4246) EP009 (FIG. 2A) was selected as a lead compound due to improved intrinsic stability (>95% purity in various solvents at 37° C. for 24 hours; FIG. 3) and high-degree of JAK3 selectivity. To test JAK3 versus JAK2 specificity of EP009, the IL-2/JAK3-dependent Kit225, and IL-3/JAK2-dependent BaF/3 cell lines were used. Kit225 and BaF/3 cells growing in the presence of IL-2 or IL-3, respectively, were treated with ascending concentrations of EP009 for 12 hours and cellular JAK3 and JAK2 tyrosine phosphorylation levels detected by Western blot analysis (FIGS. 2B and 2C). Following densitometric analysis, EP009 was determined to dose-dependently reduce IL-2-mediated JAK3 tyrosine phosphorylation with a cellular 50% inhibitory concentration (IC50) between 10 and 20 μM (FIG. 2B). […] To globally evaluate specificity, the inhibitory activity of EP009 was measured against a panel of protein kinases distributed throughout the kinome using the scanEDGE profiling service (KINOMEscan). […]

JAK3 = JAK3 (Homo sapiens, UniProt P52333); test: Constitutive JAK3 tyrosine phosphorylation in SU-DHL-1 cells (IP/Western blot); type: cell-based; set-up: cellular JAK3 and JAK2 tyrosine phosphorylation levels detected by Western blot analysis; endogenous in cells; details: 20 μM EP009, 12 hours, vs vehicle
Text: FIGS. 6A-6B. EP009 treatment disrupts constitutive JAK3/STAT3 pathway activation and down-regulates CD30 cell surface expression in human ALCL cells. (A) Kit225 (lane a), SUP-M2 (lane b), Karpas299 (lane c), DEL (lane d) and SU-DHL-1 (lane e) total cell lysates were separated by 7.5% SDS-PAGE (upper panel) or were immunoprecipitated (IP) with JAK3 antibodies (lower panel) and separated on 7.5% SDS-PAGE, and then subjected to Western blot (WB) analysis with the indicated antibodies. (B) SU-DHL-1 cells were treated with vehicle (PBS; lane a) or increasing amounts of EP009 (0-40 μM; lanes b-e) for 12 hours. Cells were then lysed, clarified, and immunoprecipitated (IP) with anti-JAK3 (α-JAK3), and subjected to Western blot (WB) analysis with anti-phosphotyrosine (α-pY). Blots were stripped and reprobed with α-JAK3 to verify equivalent protein loading. (C) SU-DHL-1 cells were treated with vehicle (PBS) or increasing amounts of EP009 (0-40 μM) for 12 hours. […] Values represent pSTAT mean fluorescence intensity (MFI) normalized to corresponding GAPDH MFI, while error bars represent the standard deviation (n=2). Statistical significance was determined using Student's t-test. […] Cells were then analyzed by flow cytometry for CD30 expression. […]

Chain of JAK3 (P52333 whole entry): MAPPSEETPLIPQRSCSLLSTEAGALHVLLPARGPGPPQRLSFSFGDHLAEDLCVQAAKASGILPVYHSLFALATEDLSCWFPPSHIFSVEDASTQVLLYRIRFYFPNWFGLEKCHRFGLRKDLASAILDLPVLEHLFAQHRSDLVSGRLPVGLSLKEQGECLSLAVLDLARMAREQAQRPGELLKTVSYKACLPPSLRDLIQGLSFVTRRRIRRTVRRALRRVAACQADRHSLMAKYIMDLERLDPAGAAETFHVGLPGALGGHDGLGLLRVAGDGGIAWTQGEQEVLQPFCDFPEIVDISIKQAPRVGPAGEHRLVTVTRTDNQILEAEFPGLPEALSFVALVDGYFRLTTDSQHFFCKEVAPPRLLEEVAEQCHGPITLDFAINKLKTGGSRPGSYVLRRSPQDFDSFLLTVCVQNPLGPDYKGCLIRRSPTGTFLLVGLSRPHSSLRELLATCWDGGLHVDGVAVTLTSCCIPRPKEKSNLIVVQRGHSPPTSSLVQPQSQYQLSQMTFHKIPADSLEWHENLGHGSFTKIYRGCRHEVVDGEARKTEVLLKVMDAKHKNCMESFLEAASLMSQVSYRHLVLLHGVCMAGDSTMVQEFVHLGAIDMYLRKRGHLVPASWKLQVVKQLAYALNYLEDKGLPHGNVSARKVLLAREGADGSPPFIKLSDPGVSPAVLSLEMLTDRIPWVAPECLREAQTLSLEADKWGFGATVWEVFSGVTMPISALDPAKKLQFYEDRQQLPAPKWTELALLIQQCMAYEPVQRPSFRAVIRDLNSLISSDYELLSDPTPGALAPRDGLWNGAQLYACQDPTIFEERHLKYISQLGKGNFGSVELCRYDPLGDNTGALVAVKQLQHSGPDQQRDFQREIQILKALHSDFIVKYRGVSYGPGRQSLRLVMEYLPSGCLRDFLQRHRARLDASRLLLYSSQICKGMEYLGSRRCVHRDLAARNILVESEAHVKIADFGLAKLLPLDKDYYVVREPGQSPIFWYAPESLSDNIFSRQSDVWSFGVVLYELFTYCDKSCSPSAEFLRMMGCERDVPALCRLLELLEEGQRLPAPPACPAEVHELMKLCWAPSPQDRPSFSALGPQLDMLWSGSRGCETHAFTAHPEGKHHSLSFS
Chain of RET (P07949 29-1114): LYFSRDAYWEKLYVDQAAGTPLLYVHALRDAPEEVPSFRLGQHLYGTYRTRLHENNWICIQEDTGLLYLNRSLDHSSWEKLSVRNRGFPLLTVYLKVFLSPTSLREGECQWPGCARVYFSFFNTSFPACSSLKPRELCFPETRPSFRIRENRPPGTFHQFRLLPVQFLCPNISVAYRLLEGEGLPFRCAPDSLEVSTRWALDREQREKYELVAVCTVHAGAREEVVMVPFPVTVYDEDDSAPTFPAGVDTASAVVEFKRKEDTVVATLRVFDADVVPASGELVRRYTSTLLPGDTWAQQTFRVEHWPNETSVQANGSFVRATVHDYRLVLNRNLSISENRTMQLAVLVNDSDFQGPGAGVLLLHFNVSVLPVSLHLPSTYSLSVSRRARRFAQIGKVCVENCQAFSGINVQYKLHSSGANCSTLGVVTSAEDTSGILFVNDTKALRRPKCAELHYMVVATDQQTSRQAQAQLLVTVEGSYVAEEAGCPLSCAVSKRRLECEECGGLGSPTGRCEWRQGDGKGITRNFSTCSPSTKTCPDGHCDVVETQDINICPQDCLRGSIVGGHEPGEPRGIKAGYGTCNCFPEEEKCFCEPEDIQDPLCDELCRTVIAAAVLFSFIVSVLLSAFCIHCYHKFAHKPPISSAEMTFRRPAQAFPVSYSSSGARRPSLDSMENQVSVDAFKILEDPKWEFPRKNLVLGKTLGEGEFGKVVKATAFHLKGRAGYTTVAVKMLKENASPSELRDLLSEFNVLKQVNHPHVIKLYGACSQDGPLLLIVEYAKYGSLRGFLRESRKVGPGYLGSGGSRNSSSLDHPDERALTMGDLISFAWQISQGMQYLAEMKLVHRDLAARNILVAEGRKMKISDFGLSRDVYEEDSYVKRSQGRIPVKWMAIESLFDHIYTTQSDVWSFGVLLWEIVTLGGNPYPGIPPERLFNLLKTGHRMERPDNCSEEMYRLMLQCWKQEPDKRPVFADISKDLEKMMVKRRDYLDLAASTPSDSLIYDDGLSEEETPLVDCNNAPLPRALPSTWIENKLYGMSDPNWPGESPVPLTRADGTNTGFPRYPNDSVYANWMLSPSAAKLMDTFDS

## C=C1CCCCCCCCCC(CO)C1=O (centres unmarked) [EP009, 2-(Hydroxymethyl)-12-methylenecyclododecanone]
RET
  Kinase Activity (% of Control): 100 % of Control
JAK3
  decrease in JAK3 tyrosine phosphorylation levels: 70%
